According to patent US20130028987A1, “Method of treating psoriasis” (priority 2011, published 2013):

System: phosphorylase kinase
Experiment: inhibition of phosphorylase kinase activity
Format: biochemical
Conditions: findings of the instant inventor; no experiment described

For `COc1cc(/C=C/C(=O)CC(=O)/C=C/c2ccc(O)c(OC)c2)ccc1O` [Curcumin], the “inhibition of phosphorylase kinase” value was “selective and non-competitive inhibitor of phosphorylase kinase”.
